Source: paper PMC10782225 (The FASEB Journal, 2023)

Molecular target: T1, unaltered α7β2‐nAChR (Homo sapiens, UniProt P17787+P36544)
T1 construct: expressed in transfected cells; host or cells: Xenopus laevis oocytes, cRNA injection
Assay: ACh concentration‐response curve, TEVC, unaltered α7β2‐nAChR
Assay type: cell-based
Details: mean ± SEM of 15–19 oocytes
From the text: Stimulations lasted 3 s, and were applied sequentially, 60 s apart.

T1 sequence (P36544 23-502): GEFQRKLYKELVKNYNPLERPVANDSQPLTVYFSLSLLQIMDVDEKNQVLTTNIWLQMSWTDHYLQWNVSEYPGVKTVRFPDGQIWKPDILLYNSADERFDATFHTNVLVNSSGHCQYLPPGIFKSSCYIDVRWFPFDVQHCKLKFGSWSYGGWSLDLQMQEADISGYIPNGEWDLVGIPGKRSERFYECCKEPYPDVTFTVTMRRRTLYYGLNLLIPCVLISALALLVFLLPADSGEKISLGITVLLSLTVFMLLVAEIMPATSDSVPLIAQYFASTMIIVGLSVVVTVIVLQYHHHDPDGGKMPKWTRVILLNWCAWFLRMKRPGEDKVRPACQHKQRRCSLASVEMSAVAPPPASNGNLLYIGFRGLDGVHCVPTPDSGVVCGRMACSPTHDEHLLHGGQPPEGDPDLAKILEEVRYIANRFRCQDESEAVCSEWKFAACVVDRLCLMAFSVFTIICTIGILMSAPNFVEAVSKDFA
T1 sequence (P17787 26-502): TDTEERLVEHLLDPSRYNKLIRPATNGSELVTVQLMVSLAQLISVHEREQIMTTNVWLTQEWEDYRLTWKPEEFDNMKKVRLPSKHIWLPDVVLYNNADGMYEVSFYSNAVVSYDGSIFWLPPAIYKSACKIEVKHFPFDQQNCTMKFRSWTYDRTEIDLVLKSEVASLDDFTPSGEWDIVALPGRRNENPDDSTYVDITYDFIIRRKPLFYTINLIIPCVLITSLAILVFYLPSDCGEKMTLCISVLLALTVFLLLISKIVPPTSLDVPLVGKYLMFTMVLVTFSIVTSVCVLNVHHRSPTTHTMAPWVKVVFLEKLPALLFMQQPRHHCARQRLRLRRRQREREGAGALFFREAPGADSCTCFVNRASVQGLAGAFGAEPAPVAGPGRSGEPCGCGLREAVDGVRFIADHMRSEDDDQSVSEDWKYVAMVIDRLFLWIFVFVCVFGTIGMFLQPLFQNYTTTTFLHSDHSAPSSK

## CC(=O)OCC[N+](C)(C)C [ACh, acetylcholine]
ACh 10 μM – 10 mM, half‐log steps, 3 s, 60 s apart
  Imax, maximum function induced by ACh, unaltered α7β2‐nAChR: 1353 ± 149 nA
Logistic fit per oocyte
  hillslope (nH), unaltered α7β2‐nAChR: 1.03 ± 0.07
